Tests used:
[1] = system: P. aeruginosa; assay: Bacteriostatic/bactericidal activity of BLAD, EDTA and their combination against P. aeruginosa; assay type: cell-based, Pseudomonas aeruginosa; conditions: EDTA at 1 mg/ml alone
[2] = system: Fusarium oxysporum; assay: Inhibition halo for BLAD with and without EDTA against Fusarium oxysporum on Potato Dextrose Agar; assay type: cell-based
Protocol: Inhibition Halo Data for BLAD with and without EDTA Against Fusarium oxysporum on Potato Dextrose Agar (PDA) at 1.2% w/v of Agar (Incubation 3 Days at 25° C.): […]

[3] = system: Streptomyces griseus; assay: MIC of BLAD and EDTA against Streptomyces griseus; assay type: cell-based; conditions: EDTA alone
[4] = system: Erwinia pirsicina; assay: MIC of BLAD and EDTA against Erwinia pirsicina; assay type: cell-based; conditions: EDTA alone
[5] = system: Botrytis cinerea; assay: Inhibition halo for BLAD with and without EDTA against Botrytis cinerea on Potato Dextrose Agar; assay type: cell-based
Protocol: Inhibition Halo Data for BLAD with and without EDTA Against Botrytis cinerea on Potato Dextrose Agar (PDA) at 1.2% w/v of Agar (Incubation 3 Days at 25° C.): […]

[6] = EDTA 50 mM alone, PDA 1.2% w/v agar, 3 days at 25° C.
[7] = EDTA 50 mM alone, individual replicates, PDA 1.2% w/v agar, 3 days at 25° C.

MIC [3]: 16 mM
MIC [4]: 15 mM
Structure (SMILES): O=C(O)CN(CCN(CC(=O)O)CC(=O)O)CC(=O)O [EDTA, ethylenediaminetetraacetic acid]
effect on growth [1]: inhibits growth
Average inhibition halo diameter [2, 6]: 0 mm
Inhibition halo diameter [2, 7]: 0 mm
growth inhibition (in words) ([2]; EDTA alone at 50 mM): No growth inhibition
Average inhibition halo diameter [5, 6]: 0 mm
Inhibition halo diameter [5, 7]: 0 mm
growth inhibition (in words) ([5]; EDTA alone at 50 mM): No growth inhibition

— patent US10265376B2, “Use of chelating agent and peptide antimicrobial compounds” (Consumo Em Verde Biotecnologia Das Plantas, S.A., priority 2010, dated 2019)
